In the first assay the target is T1, SCD-1 (Homo sapiens, UniProt O00767).
T1 construct: 50 μg of protein from a HepG2 cell P2 pellet; endogenous in cells; host or cells: HepG2 cells (P2 pellet)
T1 sequence (O00767 1-359): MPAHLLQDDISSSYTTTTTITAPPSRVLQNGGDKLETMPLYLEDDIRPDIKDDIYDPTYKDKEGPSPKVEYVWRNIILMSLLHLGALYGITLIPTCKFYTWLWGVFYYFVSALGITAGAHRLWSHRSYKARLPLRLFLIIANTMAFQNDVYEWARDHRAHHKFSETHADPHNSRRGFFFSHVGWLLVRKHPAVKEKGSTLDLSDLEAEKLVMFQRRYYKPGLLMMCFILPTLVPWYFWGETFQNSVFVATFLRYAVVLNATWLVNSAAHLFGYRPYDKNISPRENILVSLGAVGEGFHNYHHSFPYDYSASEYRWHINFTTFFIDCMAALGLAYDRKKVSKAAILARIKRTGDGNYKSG
Briefly: Stearoyl-CoA desaturase assay (HepG2 cell P2 pellet). Type of assay: biochemical. Conditions: Table 1, compounds of formula (Ia); protein from HepG2 cell P2 pellet, 20 μM stearoyl-CoA, 15 min at 25° C.; read-out: Ave IC50.
As a reminder, the IC50 is the concentration needed to halve the response being measured. Take `CCc1ccc(CN2CCC3(CCN(C(=O)CNC(=O)C4CC4)CC3)Oc3ccccc32)cc1` [Compound 5]: the IC50 lay in the range of 500 to 10000 nM.
On to `CCc1ccc(CN2CCC3(CCN(C(=O)CNC(=O)CC4CC4)CC3)Oc3ccccc32)cc1` [Compound 7], for which the IC50 was 50 to 499 nM.
As for `CC(=O)NCC(=O)N1CCC2(CC1)CCN(Cc1cccc(C(F)(F)F)c1)c1ccccc1O2` [Compound 1, N-(2-oxo-2-(5-(3-(trifluoromethyl)benzyl)-4,5-dihydro-3H-spiro[benzo[b][1,4]oxazepine-2,4′-piperidine]-1′-yl)ethyl)acetamide], the concentration for half-maximal inhibition (IC50) was more than 10000 nM.
Still for that read-out and setting: under `CC(=O)NCC(=O)N1CCC2(CC1)CCN(Cc1ccc(Cl)s1)c1ccccc1O2` [Compound 33] stands 500 to 10000 nM; under `CC(=O)NCC(=O)N1CCC2(CC1)CCN(Cc1ccccc1F)c1ccccc1O2` [Compound 19], more than 10000 nM.

The same assay, now with this note: Table 2, compounds of formula (Ib); protein from HepG2 cell P2 pellet, 20 μM stearoyl-CoA, 15 min at 25° C.; read-out: Ave IC50.
`CC(C)(C)c1ccc(CN2CCC3(CCN(c4ncc(C(=O)NCC[C@H]5CC[C@H](O)C5)s4)CC3)Oc3c(F)cccc32)cc1` [Compound 80]: the IC50 was 500 to 10000 nM.
On the same count and under the same terms, under `CC(C)(C)OC(=O)CNC(=O)c1cnc(N2CCC3(CC2)CCN(Cc2ccc(C(C)(C)C)cc2)c2cccc(F)c2O3)s1` [Compound 115] stands 0.5 to 49 nM; under `CC(C)CNC(=O)c1cnc(N2CCC3(CC2)CCN(Cc2ccc(C(C)(C)C)cc2)c2cccc(F)c2O3)s1` [Compound 84], 500 to 10000 nM; under `CC(C)(C)c1ccc(CN2CCC3(CCN(c4ncc(C(=O)N5CCCC5)s4)CC3)Oc3ccccc32)cc1` [Compound 72], 500 to 10000 nM.
Still for that read-out and setting: under `CC(C)(C)c1ccc(CN2CCC3(CCN(c4ncc(-c5cncnc5)s4)CC3)Oc3ccccc32)cc1` [Compound 135] stands 50 to 499 nM.

Still in this assay, the particulars now being: Table 3, compounds of formula (Ic); protein from HepG2 cell P2 pellet, 20 μM stearoyl-CoA, 15 min at 25° C.; read-out: Ave IC50.
As to `CCCCNC(=O)c1ccc(N2CCC3(CC2)CCN(Cc2cccc(C(F)(F)F)c2)c2ccccc2O3)nn1` [Compound 156], the IC50 fell in the range of 0.5 to 49 nM.
With `O=C(NCCc1cccnc1)c1ccc(N2CCC3(CC2)CCN(Cc2cccc(C(F)(F)F)c2)c2ccccc2O3)nn1` [Compound 163], the IC50 was 0.5 to 49 nM.
Regarding `COC(=O)c1ccc(N2CCC3(CC2)CCN(Cc2ccc(C(C)(C)C)cc2)c2cccc(F)c2O3)nc1` [Compound 143], the IC50 was 50 to 499 nM.

Values taken from US20120220567A1, “BENZO-FUSED OXAZEPINE COMPOUNDS AS STEAROYL-COENZYME A DELTA-9 DESATURASE INHIBITORS” (priority 2009, published 2012).
